In the NIST ThermoML archive (doi:10.1021/acs.jced.5b00152):
Numbers after ± are expanded uncertainties.

Settings: Liquid; for viscosity: Capillary tube (Ostwald / Ubbelohde) method; for mass density: Vibrating tube method

CCO [ethanol]
Settings | mass density [kg/m3] | viscosity [mPa·s]
298.15 K, 1022 kPa | 785.87 ± 0.56 | 1.086 ± 0.0097
298.15 K, 3922 kPa | 788.69 ± 0.57 | 1.112 ± 0.01
298.15 K, 8793 kPa | 792.53 ± 0.58 | 1.148 ± 0.01
298.15 K, 12491 kPa | 795.7 ± 0.59 | 1.175 ± 0.01
298.15 K, 17711 kPa | 799.91 ± 0.6 | 1.213 ± 0.011
298.15 K, 21982 kPa | 802.87 ± 0.62 | 1.244 ± 0.011
298.15 K, 24097 kPa | 804.5 ± 0.62 | 1.26 ± 0.011
298.15 K, 26940 kPa | 806.36 ± 0.63 | 1.28 ± 0.011
298.15 K, 29139 kPa | 807.89 ± 0.64 | 1.296 ± 0.011
323.15 K, 3237 kPa | 766.361 ± 0.55 | 0.711 ± 0.0065
323.15 K, 9248 kPa | 772.358 ± 0.57 | 0.7435 ± 0.0068
323.15 K, 12839 kPa | 775.758 ± 0.58 | 0.7616 ± 0.007
323.15 K, 18790 kPa | 780.78 ± 0.6 | 0.7928 ± 0.0072
323.15 K, 23256 kPa | 784.532 ± 0.62 | 0.8153 ± 0.0074
323.15 K, 25042 kPa | 786.147 ± 0.62 | 0.8236 ± 0.0075
323.15 K, 27936 kPa | 788.458 ± 0.64 | 0.8367 ± 0.0076
323.16 K, 626 kPa | 763.659 ± 0.55 | 0.6978 ± 0.0064
323.16 K, 15104 kPa | 777.664 ± 0.59 | 0.7732 ± 0.0071
333.27 K, 16623 kPa | 770.196 ± 0.59 | 0.6592 ± 0.0061
333.28 K, 909 kPa | 754.25 ± 0.54 | 0.5872 ± 0.0055
333.28 K, 1891 kPa | 756.361 ± 0.55 | 0.5916 ± 0.0055
333.28 K, 5093 kPa | 758.805 ± 0.56 | 0.6065 ± 0.0057
333.28 K, 9067 kPa | 762.841 ± 0.57 | 0.6251 ± 0.0058
333.28 K, 12887 kPa | 766.568 ± 0.58 | 0.6421 ± 0.0059
333.28 K, 22108 kPa | 775.145 ± 0.61 | 0.684 ± 0.0063
333.28 K, 25690 kPa | 777.944 ± 0.63 | 0.6985 ± 0.0064
333.28 K, 29272 kPa | 780.933 ± 0.64 | 0.7133 ± 0.0066

CCCCCCCO [heptan-1-ol]
Settings | mass density, 298.15 K [kg/m3] | mass density, 323.15 K [kg/m3] | viscosity, 298.15 K [mPa·s] | viscosity, 323.15 K [mPa·s]
2002 kPa | 819.81 ± 1.5 | – | 5.986 ± 0.093 | –
2006 kPa | – | 802.09 ± 1.5 | – | 2.779 ± 0.044
3999 kPa | 821.2 ± 1.5 | – | 6.11 ± 0.095 | –
4003 kPa | – | 803.5 ± 1.5 | – | 2.832 ± 0.045
6000 kPa | – | 804.98 ± 1.5 | – | 2.887 ± 0.045
6006 kPa | 822.3 ± 1.5 | – | 6.233 ± 0.097 | –
7993 kPa | – | 806.39 ± 1.5 | – | 2.942 ± 0.046
8000 kPa | 823.7 ± 1.5 | – | 6.359 ± 0.099 | –
10000 kPa | – | 807.79 ± 1.5 | – | 3 ± 0.047
10002 kPa | 824.8 ± 1.6 | – | 6.487 ± 0.1 | –
12997 kPa | 826.41 ± 1.6 | – | 6.683 ± 0.1 | –
13006 kPa | – | 809.85 ± 1.5 | – | 3.085 ± 0.049
15999 kPa | 828.31 ± 1.6 | – | 6.883 ± 0.11 | –
16007 kPa | – | 811.88 ± 1.5 | – | 3.173 ± 0.05
18995 kPa | 831.3 ± 1.6 | – | 7.086 ± 0.11 | –
19004 kPa | – | 813.79 ± 1.6 | – | 3.263 ± 0.051
22001 kPa | 833.2 ± 1.6 | – | 7.297 ± 0.11 | –
22008 kPa | – | 815.68 ± 1.6 | – | 3.354 ± 0.053
25000 kPa | 835.1 ± 1.6 | – | 7.511 ± 0.12 | –
25007 kPa | – | 817.57 ± 1.6 | – | 3.446 ± 0.054

CCCCCCC [heptane]
Settings | mass density [kg/m3] | viscosity [mPa·s]
293.25 K, 2103 kPa | 685.58 ± 1.4 | 0.4229 ± 0.0058
293.25 K, 3666 kPa | 687.27 ± 1.4 | 0.4317 ± 0.0059
293.25 K, 6195 kPa | 689.52 ± 1.4 | 0.4449 ± 0.0061
293.25 K, 10385 kPa | 693.22 ± 1.4 | 0.4681 ± 0.0064
293.25 K, 14421 kPa | 696.48 ± 1.4 | 0.4907 ± 0.0067
293.25 K, 17447 kPa | 698.88 ± 1.5 | 0.5062 ± 0.0069
293.25 K, 20472 kPa | 701.01 ± 1.5 | 0.5237 ± 0.0071
293.25 K, 23543 kPa | 703.3 ± 1.5 | 0.5407 ± 0.0073
293.25 K, 26611 kPa | 705.5 ± 1.5 | 0.5567 ± 0.0076
313.07 K, 11204 kPa | 678.28 ± 1.4 | 0.3782 ± 0.0052
313.07 K, 17225 kPa | 683.61 ± 1.4 | 0.4049 ± 0.0056
313.07 K, 20247 kPa | 686.13 ± 1.4 | 0.4185 ± 0.0058
313.07 K, 29805 kPa | 693.98 ± 1.5 | 0.4596 ± 0.0063
313.08 K, 2050 kPa | 669.15 ± 1.4 | 0.3388 ± 0.0047
313.08 K, 4083 kPa | 671.15 ± 1.4 | 0.3472 ± 0.0048
313.08 K, 6733 kPa | 673.77 ± 1.4 | 0.359 ± 0.005
313.08 K, 14195 kPa | 681.03 ± 1.4 | 0.3912 ± 0.0054
313.08 K, 23266 kPa | 688.54 ± 1.5 | 0.4314 ± 0.0059
313.08 K, 26286 kPa | 691.26 ± 1.5 | 0.4449 ± 0.0061
332.77 K, 4091 kPa | 654.57 ± 1.3 | 0.2886 ± 0.0041
332.78 K, 2084 kPa | 652.25 ± 1.3 | 0.2805 ± 0.004
332.78 K, 7031 kPa | 658.26 ± 1.4 | 0.2994 ± 0.0042
332.78 K, 11151 kPa | 662.67 ± 1.4 | 0.3143 ± 0.0044
332.78 K, 14177 kPa | 665.56 ± 1.4 | 0.3261 ± 0.0046
332.78 K, 17172 kPa | 668.79 ± 1.4 | 0.3367 ± 0.0047
332.78 K, 20193 kPa | 671.47 ± 1.4 | 0.3472 ± 0.0048
332.78 K, 23214 kPa | 674.57 ± 1.4 | 0.3581 ± 0.005
332.78 K, 26231 kPa | 677.28 ± 1.4 | 0.3689 ± 0.0051
352.39 K, 2184 kPa | 635.33 ± 1.3 | 0.2346 ± 0.0034
352.39 K, 4102 kPa | 637.96 ± 1.3 | 0.2413 ± 0.0035
352.39 K, 11159 kPa | 646.85 ± 1.4 | 0.2635 ± 0.0038
352.39 K, 14169 kPa | 650.4 ± 1.4 | 0.2732 ± 0.0039
352.39 K, 17199 kPa | 653.84 ± 1.4 | 0.283 ± 0.004
352.39 K, 29758 kPa | 666.6 ± 1.4 | 0.3207 ± 0.0045
352.4 K, 7146 kPa | 641.83 ± 1.3 | 0.2514 ± 0.0036
352.4 K, 20204 kPa | 657.05 ± 1.4 | 0.2922 ± 0.0041
352.4 K, 23212 kPa | 660.04 ± 1.4 | 0.3015 ± 0.0043
352.4 K, 26228 kPa | 663.06 ± 1.4 | 0.3106 ± 0.0044
